Source: patent US20030109563A1, “Nematicidal trifluorobutenes” (priority 2000, published 2003)

Tested on: Meloidogyne incognita
Test: Test against Meloidogyne spp. (soil pot test)
Format: in vivo
Conditions: 672 h; 10 ppm in soil contaminated by Meloidogyne incognita; tomato (Kurihara), greenhouse 4 weeks; from root knot index; read-out: controlling effect
Description: Test Against Meloidogyne spp. (Soil Pot Test)
Preparation of Test Agent:
1 Part of the active compound is impregnated to 99 parts of pumice to make fine granules.
A compound of the formula (I) was added to the soil contaminated by Meloidogyne incognita so that the chemical concentration would be 10 ppm and homogeneously mixed by stirring. A pot ( 1/5000 are) was filled with the soil. About 20 seeds of tomato (variety: Kurihara) were sown per pot. After cultivation in a greenhouse for 4 weeks, they were carefully pulled out not to damage the roots and the root knot index and the controlling effect were determined as follows.
1: A few knots were formed
2: Knots were formed to a medium extent
3: Knots were formed to an intense extent
4: Knots were formed to the most intense extent (corresponds to non-treatment). [formula]
Evaluation of the ability of the tested compounds to control the nematodes was done according to the values obtained for the controlling effect and with the following standards. […]
a: Controlling effect 100-71% b: Controlling effect 70-50% c: Controlling effect less than 50%

SMILES	pest or weed control at 10 ppm [%]
FC(F)=C(F)CCSc1ncco1 [Compound 1, 2-(3,4,4-trifluoro-3-butenylthio)oxazole]	71 to 100
[O-][S+](CCC(F)=C(F)F)c1ncco1 (centres unmarked) [Compound 2, 2-(3,4,4-trifluoro-3-butenylsulfinyl)oxazole]	71 to 100
O=S(=O)(CCC(F)=C(F)F)c1ncco1 [Compound 3, 2-(3,4,4-trifluoro-3-butenylsulfonyl)oxazole]	71 to 100
FC(F)=C(F)CCSc1ncc(Cl)o1 [Compound 4, 5-chloro-2-(3,4,4-trifluoro-3-butenylthio)oxazole]	71 to 100
FC(F)=C(F)CCSc1nc(CBr)c(Br)o1 [Compound 39, 5-bromo-4-bromomethyl-2-(3,4,4-trifluoro-3-butenylthio)oxazole]	71 to 100
COCc1cnc(SCCC(F)=C(F)F)o1 [Compound 46, 5-methoxymethyl-2-(3,4,4-trifluoro-3-butenylthio)oxazole]	71 to 100
FC(F)=C(F)CCSc1nc(Cl)co1 [Compound 52, 4-chloro-2-(3,4,4-trifluoro-3-butenylthio)oxazole]	71 to 100
OCc1coc(SCCC(F)=C(F)F)n1 [Compound 75, 4-hydroxymethyl-2-(3,4,4-trifluoro-3-butenylthio)oxazole]	71 to 100
COCc1coc(SCCC(F)=C(F)F)n1 [Compound 78, 4-methoxymethyl-2-(3,4,4-trifluoro-3-butenylthio)oxazole]	71 to 100
CSCc1coc(SCCC(F)=C(F)F)n1 [Compound 86, 4-methylthiomethyl-2-(3,4,4-trifluoro-3-butenylthio)oxazole]	71 to 100
CS(=O)(=O)Oc1coc(SCCC(F)=C(F)F)n1 [Compound 127, 4-methylsulfonyloxy-2-(3,4,4-trifluoro-3-butenylthio)oxazole]	71 to 100
